Data published in US7919625B2, “4-anilino-3-quinolinecarbonitriles for the treatment of chronic myelogenous leukemia (CML)” (Wyeth LLC, priority 2003, dated 2011).
Values belong to the compound of their own block, whether it stands above or below them.

Columns and labels:
[1] = test system: Rat 2 cells infected with Abl-murine leukemia virus; assay: Inhibition of v-Abl-dependent proliferation; assay type: cell-based; conditions: Rat2
Procedure: Ultra-low cluster plates (Corning Costar, Acton, Mass.) are seeded with 10,000 cells per well on day 1. Alternatively, Ultra-low cluster plates (Costar 3474) treated with Sigmacote (Sigma, St. Louis, Mo.), rinsed with 70% ethanol, after drying in the hood, are seeded with 5000 cells.
Alternatively relative cell numbers were determined by the CellTiter-Glo™ (Promega) method. All procedures were identical except that cell number was reduced to 1000 cells/well and CellTiter-Glo reagent was added instead of MTS reagent, with luminescence as the readout.
(§1) • A. Inhibition of v-Abl-dependent proliferation. Rat 2 cells infected with Abl-murine leukemia virus were grown and treated as described for the Src cell assay. All measurements were identical except for the cell type that Cell-Titer Glo (Promega) was used to monitor relative cell number. In this case, the reagent was used as recommended by the manufacturer and luminescence was measured on a Wallac Victor plate reader. • B. Inhibition of CML cell proliferation. KU812 and K562 cells were grown in RPMI1640 medium supplemented with 10% fetal calf serum and glutamine with 50 μg/ml gentamicin. Cells were plated at 1000-2000 cells per well on Day 0. On Day 1, compound was added such that the final DMSO concentration was no greater than 0.1%. On Day 4, Cell-Titer Glo was added according to manufacturer specifications and luminescence was determined on a Wallac Victor plate reader.

K562 cells = assay: Inhibition of CML cell proliferation, K562; assay type: cell-based; conditions: Homo sapiens
Procedure: as §1

KU812 cells = assay: Inhibition of CML cell proliferation, KU812; assay type: cell-based; conditions: Homo sapiens
Procedure: as §1

K562 xenografts = K562 xenografts in nude mice, tumor-free survival; assay type: in vivo
Text: Nude mice with K562 xenografts were examined on days 11, 22, 36, and 43. Data is presented as a ratio of animals lacking detectable tumors relative to the number of animals per group. K562 tumors imbedded in Matrigel were staged in nude mice until tumors reached 200-300 mm^3.

c-Abl = target: T1, c-Abl (Homo sapiens, UniProt P00519); assay: Homogeneous solution-based Abl kinase assay (Lance); assay type: biochemical; conditions: read-out: c-Abl Enzyme IC50
T1 construct: purchased Panvera P3049

Src [2] = target: T2, Src (Homo sapiens, UniProt P12931); assay: Src kinase assay, homogeneous solution-based (Lance format); assay type: biochemical; design: purchased Upstate Biotechnologies, Lake Placid, N.Y; conditions: read-out: Src enzyme IC50
Src [3] = target: T2, Src; assay: Src kinase assay, ELISA format
[4] = read-out: Src enzyme IC50, ELISA format

T2 sequence (P12931 whole entry): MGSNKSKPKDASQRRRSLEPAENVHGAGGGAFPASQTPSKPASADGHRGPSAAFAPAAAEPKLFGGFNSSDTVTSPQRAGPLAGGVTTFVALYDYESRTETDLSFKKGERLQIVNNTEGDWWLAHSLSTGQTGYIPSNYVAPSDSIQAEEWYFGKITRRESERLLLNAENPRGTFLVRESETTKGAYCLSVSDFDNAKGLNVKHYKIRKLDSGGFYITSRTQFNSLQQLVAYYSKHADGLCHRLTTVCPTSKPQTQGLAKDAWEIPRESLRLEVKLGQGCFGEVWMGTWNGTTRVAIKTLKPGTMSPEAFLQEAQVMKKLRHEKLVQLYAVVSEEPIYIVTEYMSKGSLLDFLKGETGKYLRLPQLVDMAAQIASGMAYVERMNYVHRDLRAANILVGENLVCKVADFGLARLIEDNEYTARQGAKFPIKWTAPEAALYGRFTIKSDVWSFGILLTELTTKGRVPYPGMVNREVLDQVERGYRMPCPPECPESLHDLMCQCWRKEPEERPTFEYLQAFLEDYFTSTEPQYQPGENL
T1 sequence (P00519 whole entry): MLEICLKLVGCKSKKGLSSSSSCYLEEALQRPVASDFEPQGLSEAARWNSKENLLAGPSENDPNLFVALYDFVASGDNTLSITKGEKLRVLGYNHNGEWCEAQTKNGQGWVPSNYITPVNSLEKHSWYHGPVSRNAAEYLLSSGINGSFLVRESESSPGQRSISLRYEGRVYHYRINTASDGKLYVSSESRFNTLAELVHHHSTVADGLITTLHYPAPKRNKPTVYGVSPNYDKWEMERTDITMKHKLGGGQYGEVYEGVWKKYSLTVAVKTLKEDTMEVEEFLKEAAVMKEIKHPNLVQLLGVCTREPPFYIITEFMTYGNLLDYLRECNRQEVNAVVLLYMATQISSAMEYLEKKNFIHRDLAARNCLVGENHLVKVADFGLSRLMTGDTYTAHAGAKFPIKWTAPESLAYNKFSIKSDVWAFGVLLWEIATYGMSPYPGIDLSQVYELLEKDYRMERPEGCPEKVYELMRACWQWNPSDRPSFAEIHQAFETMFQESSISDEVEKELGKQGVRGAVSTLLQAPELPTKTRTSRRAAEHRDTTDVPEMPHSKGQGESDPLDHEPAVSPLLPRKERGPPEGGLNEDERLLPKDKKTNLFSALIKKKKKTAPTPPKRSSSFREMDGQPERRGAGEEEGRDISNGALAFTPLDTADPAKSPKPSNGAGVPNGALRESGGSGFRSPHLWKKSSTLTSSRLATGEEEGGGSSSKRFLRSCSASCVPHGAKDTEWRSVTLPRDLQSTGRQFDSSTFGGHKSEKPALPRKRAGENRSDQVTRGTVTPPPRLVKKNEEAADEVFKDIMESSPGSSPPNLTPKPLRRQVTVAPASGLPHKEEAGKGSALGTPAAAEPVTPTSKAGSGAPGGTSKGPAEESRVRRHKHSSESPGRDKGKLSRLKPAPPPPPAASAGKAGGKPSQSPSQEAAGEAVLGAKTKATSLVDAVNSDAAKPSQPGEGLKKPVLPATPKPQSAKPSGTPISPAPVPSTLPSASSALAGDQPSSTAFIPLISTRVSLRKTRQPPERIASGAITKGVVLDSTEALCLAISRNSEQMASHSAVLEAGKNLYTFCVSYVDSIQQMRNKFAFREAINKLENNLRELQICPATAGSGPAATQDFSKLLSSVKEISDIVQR

Structure (SMILES): COc1cc(Nc2c(C#N)cnc3cc(OCCCN4CCN(C)CC4)c(OC)cc23)c(Cl)cc1Cl [Example 1, 4-[(2,4-Dichloro-5-methoxyphenyl)amino]-6-methoxy-7-[3-(4-methyl-1-piperazinyl)propoxy]-3-quinolinecarbonitrile]
IC50 [1]: 76 nM
IC50 (K562 cells): 20 nM
IC50 (KU812 cells): 5 nM
Tumor-free survival (animals lacking detectable tumors / animals per group) (K562 xenografts; 50 mg/kg p.o. once a day for 5 days, day 11): 6/8
Tumor-free survival (animals lacking detectable tumors / animals per group) (K562 xenografts; 50 mg/kg p.o. once a day for 5 days, day 22): 5/8
Tumor-free survival (animals lacking detectable tumors / animals per group) (K562 xenografts; 50 mg/kg p.o. once a day for 5 days, day 36): 4/8
Tumor-free survival (animals lacking detectable tumors / animals per group) (K562 xenografts; 50 mg/kg p.o. once a day for 5 days, day 43): 4/8
Tumor-free survival (animals lacking detectable tumors / animals per group) (K562 xenografts; 75 mg/kg p.o. once a day for 5 days, day 11): 7/8
Tumor-free survival (animals lacking detectable tumors / animals per group) (K562 xenografts; 75 mg/kg p.o. once a day for 5 days, day 22): 6/8
Tumor-free survival (animals lacking detectable tumors / animals per group) (K562 xenografts; 75 mg/kg p.o. once a day for 5 days, day 36): 6/8
Tumor-free survival (animals lacking detectable tumors / animals per group) (K562 xenografts; 75 mg/kg p.o. once a day for 5 days, day 43): 6/8
Tumor-free survival (animals lacking detectable tumors / animals per group) (K562 xenografts; 100 mg/kg p.o. once a day for 5 days, day 11): 8/8
Tumor-free survival (animals lacking detectable tumors / animals per group) (K562 xenografts; 100 mg/kg p.o. once a day for 5 days, day 22): 7/8
Tumor-free survival (animals lacking detectable tumors / animals per group) (K562 xenografts; 100 mg/kg p.o. once a day for 5 days, day 36): 7/8
Tumor-free survival (animals lacking detectable tumors / animals per group) (K562 xenografts; 100 mg/kg p.o. once a day for 5 days, day 43): 7/8
Tumor-free survival (animals lacking detectable tumors / animals per group) (K562 xenografts; 150 mg/kg p.o. once a day for 5 days, day 11): 8/8
Tumor-free survival (animals lacking detectable tumors / animals per group) (K562 xenografts; 150 mg/kg p.o. once a day for 5 days, day 22): 8/8
Tumor-free survival (animals lacking detectable tumors / animals per group) (K562 xenografts; 150 mg/kg p.o. once a day for 5 days, day 36): 8/8
Tumor-free survival (animals lacking detectable tumors / animals per group) (K562 xenografts; 150 mg/kg p.o. once a day for 5 days, day 43): 8/8

Structure (SMILES): COc1cc(Nc2c(C#N)cnc3cc(OCCC4CCN(C)CC4)c(OC)cc23)c(Cl)cc1Cl [Example 6, 4-[(2,4-Dichloro-5-methoxyphenyl)amino]-6-methoxy-7-[2-(1-methylpiperidin-4-yl)ethoxy]-3-quinolinecarbonitrile]
IC50 (c-Abl): 2.9 nM
IC50 [1]: 458 nM
IC50 (K562 cells): 41 nM
IC50 (KU812 cells): 14 nM

Structure (SMILES): COc1cc(Nc2c(C#N)cnc3cc(OCC4CCN(C)CC4)c(OC)cc23)c(Cl)cc1Cl [Example 5, 4-[(2,4-Dichloro-5-methoxyphenyl)amino]-6-methoxy-7-[(1-methylpiperidin-4-yl)methoxy]-3-quinolinecarbonitrile]
IC50 (c-Abl): 2.9 nM
IC50 [1]: 617 nM
IC50 (K562 cells): 39 nM
IC50 (KU812 cells): 13.4 nM

Structure (SMILES): COc1cc(Nc2c(C#N)cnc3cc(OCCCC4CCN(C)CC4)c(OC)cc23)c(Cl)cc1Cl [Example 7, 4-[(2,4-Dichloro-5-methoxyphenyl)amino]-6-methoxy-7-[3-(1-methylpiperidin-4-yl)propoxy]quinoline-3-carbonitrile]
IC50 [1]: 185 nM
IC50 (K562 cells): 18 nM
IC50 (KU812 cells): 5.8 nM

Structure (SMILES): CCCN1CCN(CCCOc2cc3ncc(C#N)c(Nc4cc(OC)c(Cl)cc4Cl)c3cc2OC)CC1 [Example 15, 4-[(2,4-Dichloro-5-methoxyphenyl)amino]-6-methoxy-7-[3-(4-propyl-1-piperazinyl)propoxy]-3-quinolinecarbonitrile]
IC50 (Src [3]; [4]): 1.1 nM

Structure (SMILES): COc1cc(Nc2c(C#N)cnc3cc(OCCN4CCN(C)CC4)c(OC)cc23)c(Cl)cc1Cl [Example 3, 4-[(2,4-Dichloro-5-methoxyphenyl)amino]-6-methoxy-7-[2-(4-methyl-1-piperazinyl)ethoxy]-3-quinolinecarbonitrile]
IC50 [1]: 440 nM
IC50 (K562 cells): 48 nM
melting point: 165 to 167 °C

Continued, values first:

melting point: 174 to 176 °C
Structure (SMILES): CCOc1cc2c(Nc3cc(OC)c(Cl)cc3Cl)c(C#N)cnc2cc1OCCC1CCN(C)CC1 [Example 14, 4-[(2,4-Dichloro-5-methoxyphenyl)amino]-6-ethoxy-7-[2-(1-methylpiperidin-4-yl)ethoxy]quinoline-3-carbonitrile]

melting point: 148 to 151 °C
Structure (SMILES): CCOc1cc2c(Nc3cc(OC)c(Cl)cc3Cl)c(C#N)cnc2cc1OCCCC1CCN(C)CC1 [Example 12, 4-[(2,4-Dichloro-5-methoxyphenyl)amino]-6-ethoxy-7-[3-(1-methylpiperidin-4-yl)propoxy]quinoline-3-carbonitrile]

melting point: 182 to 186 °C
Structure (SMILES): CCOc1cc2c(Nc3cc(OC)c(Cl)cc3Cl)c(C#N)cnc2cc1OCC1CCN(C)CC1 [Example 10, 4-[(2,4-Dichloro-5-methoxyphenyl)amino]-6-ethoxy-7-[(1-methylpiperidin-4-yl)methoxy]quinoline-3-carbonitrile]

melting point: 141 to 143 °C
Structure (SMILES): CCOc1cc2c(Nc3cc(OC)c(Cl)cc3Cl)c(C#N)cnc2cc1OCCN1CCN(C)CC1 [Example 13, 4-[(2,4-Dichloro-5-methoxyphenyl)amino]-6-ethoxy-7-[2-(4-methyl-1-piperazinyl)ethoxy]quinoline-3-carbonitrile]

melting point: 192 to 195 °C
Structure (SMILES): CCN1CCC(COc2cc3ncc(C#N)c(Nc4cc(OC)c(Cl)cc4Cl)c3cc2OC)CC1 [Example 8, 4-[(2,4-Dichloro-5-methoxyphenyl)amino]-7-[(1-ethylpiperidin-4-yl)methoxy]-6-methoxyquinoline-3-carbonitrile]

IC50 (Src [2]): 230 nM
Structure (SMILES): CCOc1cc(Nc2c(C#N)cnc3cc(OCC4CCN(C)CC4)c(OC)cc23)c(Cl)cc1Cl [Example 22, 4-[(2,4-dichloro-5-ethoxyphenyl)amino]-6-methoxy-7-[(1-methylpiperidin-4-yl)methoxy]quinoline-3-carbonitrile]

melting point: 137 to 138 °C
IC50 (Src [3]): 1.2 nM
Structure (SMILES): CCOc1cc2c(Nc3cc(OC)c(Cl)cc3Cl)c(C#N)cnc2cc1OCCCN1CCN(C)CC1 [Example 9, 4-[(2,4-Dichloro-5-methoxyphenyl)amino]-6-ethoxy-7-[3-(4-methylpiperazin-1-yl)propoxy]quinoline-3-carbonitrile]

melting point: 101 to 105 °C
Structure (SMILES): CCN1CCN(CCOc2cc3ncc(C#N)c(Nc4cc(OC)c(Cl)cc4Cl)c3cc2OC)CC1 [Example 4, 4-[(2,4-Dichloro-5-methoxyphenyl)amino]-7-[2-(4-ethyl-1-piperazinyl)ethoxy]-6-methoxy-3-quinolinecarbonitrile]

IC50 (Src [3]; [4]): 0.77 nM
Structure (SMILES): CCN1CCN(CCCOc2cc3ncc(C#N)c(Nc4cc(OC)c(Cl)cc4Cl)c3cc2OC)CC1 [Example 2, 4-[(2,4-Dichloro-5-methoxyphenyl)amino]-7-[3-(4-ethyl-1-piperazinyl)propoxy]-6-methoxy-3-quinolinecarbonitrile]

melting point: 127 to 130 °C
Structure (SMILES): CCOc1cc2c(Nc3cc(OC)c(Cl)cc3Cl)c(C#N)cnc2cc1OCCCN1CCN(CC)CC1 [Example 11, 4-[(2,4-Dichloro-5-methoxyphenyl)amino]-6-ethoxy-7-[3-(4-ethylpiperazin-1-yl)propoxy]quinoline-3-carbonitrile]
